From PubChem BioAssay AID248 (DTP/NCI, 2004)
Where “and” joins values, the source holds several entries; their conditions need not be identical. Equal values may be shown once. Toxic doses and inconclusive results are not listed.

Test system: L1210 leukemia ip in BDF1 mice, survival T/C
Assay: NCI In Vivo Anticancer Drug Screen. Data for tumor model L1210 Leukemia (intraperitoneal) in B6D2F1 (BDF1) mice
Conditions: endpoint: mean survival time, higher = longer survival
In short: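 Transplantable tumor model; survival measured in treated vs vehicle control mice. Value = treated/control.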

[1] = dose: 100.0 mg/kg/injection, schedule: Q01DX001 (ip), vehicle: carboxymethylcellulose (CMC)
[2] = dose: 200.0 mg/kg/injection, schedule: Q01DX001 (ip), vehicle: carboxymethylcellulose (CMC)
[3] = dose: 400.0 mg/kg/injection, schedule: Q01DX001 (ip), vehicle: carboxymethylcellulose (CMC)
[4] = dose: 100.0 mg/kg/injection, schedule: Q01DX001 (ip), vehicle: saline
[5] = dose: 200.0 mg/kg/injection, schedule: Q01DX001 (ip), vehicle: saline
[6] = dose: 400.0 mg/kg/injection, schedule: Q01DX001 (ip), vehicle: saline
[7] = dose: 100.0 mg/kg/injection, schedule: Q04DX003 (ip), vehicle: Klucel (hydroxypropylcellulose) (HPC)
[8] = dose: 200.0 mg/kg/injection, schedule: Q04DX003 (ip), vehicle: Klucel (hydroxypropylcellulose) (HPC)
[9] = dose: 400.0 mg/kg/injection, schedule: Q04DX003 (ip), vehicle: Klucel (hydroxypropylcellulose) (HPC)
[10] = dose: 100.0 mg/kg/injection, schedule: Q04DX002 (ip), vehicle: Klucel (hydroxypropylcellulose) (HPC)
[11] = dose: 200.0 mg/kg/injection, schedule: Q04DX002 (ip), vehicle: Klucel (hydroxypropylcellulose) (HPC)
[12] = dose: 400.0 mg/kg/injection, schedule: Q04DX002 (ip), vehicle: Klucel (hydroxypropylcellulose) (HPC)
[13] = dose: 50.0 mg/kg/injection, schedule: Q01DX001 (ip), vehicle: saline
[14] = dose: 100.0 mg/kg/injection, schedule: Q01DX009 (ip), vehicle: saline
[15] = dose: 200.0 mg/kg/injection, schedule: Q01DX009 (ip), vehicle: saline
[16] = dose: 100.0 mg/kg/injection, schedule: Q04DX003 (ip), vehicle: saline with Tween-80
[17] = dose: 200.0 mg/kg/injection, schedule: Q04DX003 (ip), vehicle: saline with Tween-80
[18] = dose: 400.0 mg/kg/injection, schedule: Q04DX003 (ip), vehicle: saline with Tween-80

With `CCN(CC)CCNC(Cc1ccccc1)c1ccc(OCc2ccccc2)cc1` (stereo not given) the T/C [1] was 100 % of control, the T/C [2] was 96 % of control and the T/C [3] was 96 % of control.
For `CCCNC(=O)Nc1ccc(C(=O)OCC(C)C)cc1`, the T/C (dose: 100.0 mg/kg/injection, schedule: Q01DX009 (ip), vehicle: saline with Tween-80) was 95 % of control and the T/C (dose: 200.0 mg/kg/injection, schedule: Q01DX009 (ip), vehicle: saline with Tween-80) was 93 % of control.
`CCc1ccccn1` was tested, and the T/C [4] was 100 % of control, the T/C [5] was 102 % of control and the T/C [6] was 95 % of control.
`COC1OC(C)C(OS(C)(=O)=O)C2OC(C)(C)OC12` (stereo not given) was tested, and the T/C (dose: 50.0 mg/kg/injection, schedule: Q01DX009 (ip), vehicle: Klucel (hydroxypropylcellulose) (HPC)) was 103 % of control, the T/C (dose: 100.0 mg/kg/injection, schedule: Q01DX009 (ip), vehicle: Klucel (hydroxypropylcellulose) (HPC)) was 97 % of control and the T/C [7] was 124 % of control. The T/C (dose: 200.0 mg/kg/injection, schedule: Q01DX009 (ip), vehicle: Klucel (hydroxypropylcellulose) (HPC)) was 100 % of control, the T/C [8] was 107 % of control and the T/C (dose: 400.0 mg/kg/injection, schedule: Q01DX009 (ip), vehicle: Klucel (hydroxypropylcellulose) (HPC)) was 112 % of control. For the same compound, the T/C [9] was 101 % of control.
For `Nn1cnc2c(ncn2C2OC(CO)C(O)C2O)c1=O` (stereo not given), the T/C (dose: 100.0 mg/kg/injection, schedule: Q01DX005 (ip), vehicle: saline) was 88 % of control and the T/C (dose: 200.0 mg/kg/injection, schedule: Q01DX005 (ip), vehicle: saline) was 100 % of control.
For `CC1C(c2ccccc2)OCCN1CN1C(=O)c2ccccc2C1=O` (stereo not given), the T/C [10] was 100 % of control, the T/C [11] was 104 % of control and the T/C [12] was 104 % of control.
`CCCCNC(=O)CC#N` was tested, and the T/C [7] was 104 % of control, the T/C [8] was 107 % of control and the T/C [9] was 107 % of control.
With `CCC1=CC(=O)CCC1` the T/C [13] was 96 % of control, the T/C [4] was 100 % of control and the T/C [5] was 102 % of control. For the same compound, the T/C [6] was 108 % of control.
With `Cc1cn(C)c2nccnc12` the T/C (dose: 25.0 mg/kg/injection, schedule: Q01DX009 (ip), vehicle: water) was 104 % of control, the T/C (dose: 50.0 mg/kg/injection, schedule: Q01DX009 (ip), vehicle: water) was 110 % of control and the T/C (dose: 100.0 mg/kg/injection, schedule: Q01DX009 (ip), vehicle: water) was 98 % of control.
With `O=C1CC(C(=O)O)C(C(=O)O)O1` (stereo not given) the T/C [13] was 97 % of control, the T/C (dose: 75.0 mg/kg/injection, schedule: Q01DX001 (ip), vehicle: saline) was 101 % of control and the T/C [4] was 92 % of control. For the same compound, the T/C (dose: 150.0 mg/kg/injection, schedule: Q01DX001 (ip), vehicle: saline) was 97 % of control and the T/C [5] was 90 % of control.
`CC1C(=O)C2C(CCC3=CC(=O)CCC32C)C2CCC(C(C)(C)OCCO)C12C` (stereo not given) was tested, and the T/C (dose: 50.0 mg/kg/injection, schedule: Q01DX001 (sc), vehicle: steriod suspending solution) was 105 % of control, the T/C (dose: 100.0 mg/kg/injection, schedule: Q01DX001 (sc), vehicle: steriod suspending solution) was 102 % of control and the T/C (dose: 200.0 mg/kg/injection, schedule: Q01DX001 (sc), vehicle: steriod suspending solution) was 107 % of control. For the same compound, the T/C (dose: 400.0 mg/kg/injection, schedule: Q01DX001 (sc), vehicle: steriod suspending solution) was 96 % of control.
For `Cc1ccc(S(=O)(=O)Nc2ccc([N+](=O)[O-])cc2OS(=O)(=O)c2ccc(C)cc2)cc1`, the T/C [14] was 97 % of control, the T/C [15] was 101 % of control and the T/C (dose: 400.0 mg/kg/injection, schedule: Q01DX009 (ip), vehicle: saline) was 95 % of control.
In the case of `Cc1[nH]c(=S)[nH]c(=O)c1CCS`, the T/C [4] is reported as 98 % of control, the T/C [5] is reported as 93 % of control and the T/C [6] is reported as 95 % of control.
With `O=C(O)c1ccc(C(Cl)(Cl)Cl)cc1` the T/C (dose: 50.0 mg/kg/injection, schedule: Q01DX009 (ip), vehicle: saline sonified) was 96 % of control, the T/C (dose: 100.0 mg/kg/injection, schedule: Q01DX009 (ip), vehicle: saline sonified) was 115 % of control and the T/C [7] was 102 % of control. The T/C (dose: 200.0 mg/kg/injection, schedule: Q01DX009 (ip), vehicle: saline sonified) was 118 % of control and the T/C [8] was 94 % of control.
With `O=C(O)C1CCCCC1C(=O)NCc1ccccc1Cl` (stereo not given) the T/C [10] was 100 % of control, the T/C [11] was 100 % of control and the T/C [12] was 96 % of control.
In the case of `Cc1cn(C2OC(CO)C(O)C(O)C2N)c(=O)[nH]c1=O` (stereo not given), the T/C [13] is reported as 107 % of control, the T/C [4] is reported as 97 % of control and 103 % of control and the T/C [5] is reported as 97 % of control and 108 % of control. The T/C [6] was 103 % of control and 105 % of control.
In the case of `CN(CO)c1nc(N(C)CO)nc(N(C)CO)n1`, the T/C (dose: 6.25 mg/kg/injection, schedule: Q01DX009 (ip), vehicle: saline) is reported as 109 % of control, the T/C (dose: 12.5 mg/kg/injection, schedule: Q01DX009 (ip), vehicle: saline) is reported as 113 % of control and the T/C (dose: 25.0 mg/kg/injection, schedule: Q01DX009 (ip), vehicle: saline) is reported as 120 % of control. For the same compound, the T/C [14] was 166 % of control and the T/C [15] was 86 % of control.
`O=NN(CCCl)C(=O)NC(=O)NCCCl` was tested, and the T/C (dose: 1.0 mg/kg/injection, schedule: Q01DX001 (ip), vehicle: carboxymethylcellulose (CMC)) was 112 % of control, the T/C (dose: 2.0 mg/kg/injection, schedule: Q01DX001 (ip), vehicle: carboxymethylcellulose (CMC)) was 118 % of control and the T/C (dose: 4.0 mg/kg/injection, schedule: Q01DX001 (ip), vehicle: carboxymethylcellulose (CMC)) was 122 % of control. The T/C (dose: 18.0 mg/kg/injection, schedule: Q01DX001 (ip), vehicle: carboxymethylcellulose (CMC)) was 119 % of control.
With `O=C(NCc1ccccc1Cl)Nc1ccc(F)cc1` the T/C [1] was 92 % of control, the T/C (dose: 100.0 mg/kg/injection, schedule: Q01DX009 (ip), vehicle: carboxymethylcellulose (CMC)) was 92 % of control and 93 % of control and the T/C (dose: 100.0 mg/kg/injection, schedule: Q04DX002 (ip), vehicle: carboxymethylcellulose (CMC)) was 95 % of control (2×) and 97 % of control. For the same compound, the T/C (dose: 100.0 mg/kg/injection, schedule: Q04DX003 (ip), vehicle: carboxymethylcellulose (CMC)) was 95 % of control, the T/C [2] was 96 % of control and the T/C (dose: 200.0 mg/kg/injection, schedule: Q01DX009 (ip), vehicle: carboxymethylcellulose (CMC)) was 101 % of control. The T/C (dose: 200.0 mg/kg/injection, schedule: Q04DX002 (ip), vehicle: carboxymethylcellulose (CMC)) was 94 % of control and 96 % of control and 88 % of control, the T/C (dose: 200.0 mg/kg/injection, schedule: Q04DX003 (ip), vehicle: carboxymethylcellulose (CMC)) was 96 % of control and the T/C [3] was 87 % of control. For the same compound, the T/C (dose: 400.0 mg/kg/injection, schedule: Q01DX009 (ip), vehicle: carboxymethylcellulose (CMC)) was 92 % of control and 88 % of control, the T/C (dose: 400.0 mg/kg/injection, schedule: Q04DX002 (ip), vehicle: carboxymethylcellulose (CMC)) was 93 % of control and the T/C (dose: 400.0 mg/kg/injection, schedule: Q04DX003 (ip), vehicle: carboxymethylcellulose (CMC)) was 91 % of control.
In the case of `O=C1OC(C(O)CO)C(O)C1O` (stereo not given), the T/C (dose: 25.0 mg/kg/injection, schedule: Q04DX002 (ip), vehicle: saline with Tween-80) is reported as 101 % of control, the T/C [13] is reported as 94 % of control and the T/C (dose: 50.0 mg/kg/injection, schedule: Q04DX002 (ip), vehicle: saline with Tween-80) is reported as 101 % of control. For the same compound, the T/C [4] was 100 % of control, the T/C (dose: 100.0 mg/kg/injection, schedule: Q04DX002 (ip), vehicle: saline with Tween-80) was 96 % of control and the T/C [5] was 100 % of control. The T/C (dose: 200.0 mg/kg/injection, schedule: Q04DX002 (ip), vehicle: saline with Tween-80) was 101 % of control and the T/C [6] was 92 % of control.
In the case of `CC(C)C(=O)Nc1ccc(S(=O)(=O)NCCO)cc1`, the T/C [16] is reported as 97 % of control, the T/C [17] is reported as 92 % of control and the T/C [18] is reported as 92 % of control.
For `Nc1ccnc2n[nH]nc12`, the T/C (dose: 100.0 mg/kg/injection, schedule: Q01DX001 (ip), vehicle: saline with Tween-80) was 111 % of control, the T/C [16] was 101 % of control and the T/C (dose: 200.0 mg/kg/injection, schedule: Q01DX001 (ip), vehicle: saline with Tween-80) was 110 % of control. For the same compound, the T/C [17] was 100 % of control, the T/C (dose: 400.0 mg/kg/injection, schedule: Q01DX001 (ip), vehicle: saline with Tween-80) was 104 % of control and the T/C [18] was 103 % of control.
